Results taken from PMC8650031, “Santin and cirsimaritin from Betula pubescens and Betula pendula buds induce apoptosis in human digestive system cancer cells” (Journal of Cellular and Molecular Medicine, 2021).

Columns and labels:
[1] = test system: HepG2 cells; assay: Annexin V/propidium iodide apoptosis assay, HepG2; format: cell-based, human; settings: 48 h
Method: (§1) Cells were seeded at a density of 1 × 10^5 cells per well in 6-well plates and allowed to adhere for 24 h. Cells were treated with various concentrations of flavonoids (12.5, 25, 50 and 100 μM) for 48 h. Floating and adherent cells were collected and assayed using a Dead Cell Apoptosis Kit with annexin V-fluorescein isothiocyanate (FITC) and propidium iodide (PI), for flow cytometry (#V13242, Thermo Fisher Scientific, USA), according to the manufacturer’s protocol. Briefly, cells were dispersed in 100 μL annexin-binding buffer containing 5 μL annexin V-FITC conjugate solution, 1 μg/mL PI and 1 μg/mL Hoechst 33342, and incubated for 15 min at room temperature. Then 400 μL of annexin-binding buffer was added, and the cell suspension was transferred to 96-well plates and visualised using fluorescence microscopy on a BD Pathway 855 system (Becton Dickinson, USA). Early […]
(§2) red and blue fluorescence. […]

[2] = test system: HepG2 cells; assay: [3H]-thymidine incorporation (DNA biosynthesis), HepG2; format: cell-based, human; settings: HepG2, 50 μM, 48 h
Method: (§3) Cells were plated in 24‐well plates at 4 × 10^4 cells per well and allowed to adhere for 24 h. Cells were treated with the various concentrations of flavonoids (25, 50 and 100 μM) in 1 mL medium containing 0.5 μCi [^3H]‐thymidine (#MT6037, Hartmann Analytic, Germany) for 48 h. Medium was discarded, and cells were rinsed three times with phosphate buffered saline (PBS), and solubilized with 1 mL of 0.1 M sodium hydroxide containing 1% sodium dodecyl sulphate. Then, 9 mL of scintillation liquid (PerkinElmer, USA) was added, and radioactivity incorporated into DNA was measured using a scintillation counter.

[3] = test system: normal human skin fibroblasts (CCD25Sk); assay: MTT cell viability assay, normal fibroblasts; format: cell-based; settings: Skin fibroblast
Method: (§4) Viability of cells was determined using the MTT assay. Cells were plated in 96‐well plates at 1 × 10^4 cells per well and allowed to adhere for 24 h. […] MTT (3‐(4,5‐Dimethyl‐2‐thiazolyl)‐2,5‐diphenyl‐2H‐tetrazolium bromide, Sigma‐Aldrich, USA) solution was added to each well, and cells were incubated at 37°C for 4 h. The medium was then removed, and formazan crystals were dissolved in 100 μL of DMSO and 12.5 μL of Sorensen's glycine buffer on a plate shaker. Absorbance was measured at 570 nm using a microplate reader. IC50 values were calculated using GraphPad Prism software.

[4] = test system: DLD‐1 cells; assay: Annexin V/propidium iodide apoptosis assay, DLD-1; format: cell-based, human; settings: 48 h
Method: as §1, §2

[5] = test system: colorectal adenocarcinoma DLD‐1 cells; assay: MTT cell viability assay, DLD-1 cells; format: cell-based, human; settings: for IC50: Homo sapiens, MTT; for reduction in viability: DLD-1, 100 μM
Method: as §4

[6] = test system: p53 in DLD‐1 cells; assay: p53 expression by Western blot and fluorescence microscopy, DLD-1; format: cell-based, human; settings: DLD-1, 48 h treatment
Method: (§5) Cells were seeded at a density of 1 × 10^5 cells per well in 6-well plates and allowed to adhere for 24 h. Cells were treated with various concentrations of flavonoids (12.5, 25, 50 and 100 […]
(§6) Adherent and floating cells were harvested and sonicated. Obtained homogenates were supplemented with 1% protease and phosphatase inhibitor cocktail (#78440, Thermo Fisher Scientific, USA). A Lowry assay was performed to quantify protein content in the homogenates. Proteins (20–40 μg) were resolved on 7.5%, 10% or 12% SDS-PAGE gels using the Mini-Protean Tetra system (Bio-Rad, USA). Proteins were transferred to nitrocellulose membranes (Bio-Rad, USA) using the Mini Trans-Blot Cell wet blotting system (Bio-Rad, USA). Membranes were blocked with 5% skim milk for 1 hour at room temperature and probed overnight at 4 °C with primary antibodies. The following antibodies […]
(§7) 1:1000), purchased from Cell Signaling Technology (USA); anti-p53 antibody (#sc-126, […]
(§8) 1:500) obtained from Santa Cruz Biotechnology (USA); and anti-actin antibody (#A2066, 1:2000) purchased from Sigma-Aldrich (USA). After extensive washes, a secondary antibody solution in 5% skim milk (anti-mouse IgG-HRP, Sigma-Aldrich, #A9044, 1:5000; anti-rabbit IgG-HRP, Sigma-Aldrich, #A9169, 1:5000) was added for 1 h at room temperature.
(§9) Membranes were incubated with ECL-HRP substrate (GE Healthcare, USA) and the signal was detected using the BioSpectrum Imaging System (Ultra-Violet Products, Ltd., UK).
(§10) 2.8. Immunofluorescence microscopy
(§11) Cells were plated in 96-well plates at 1 × 10^4 cells per well and allowed to adhere for 24 h.
(§12) Cells were treated with the respective concentration of flavonoids and incubated for 48 h. […]
(§13) The mass spectrometric detector was calibrated by analyzing flavonoid solutions in the concentration range 0.06‒2.0 mg/ml in the mode of selective monitoring of the most intense ions (M+ ‒ CH3) in the spectra of TMS derivatives of the determined components (Table S1).

[7] = test system: gastric adenocarcinoma AGS cells; assay: MTT cell viability assay, AGS cells; format: cell-based, human; settings: for IC50: Homo sapiens, MTT; for reduction in viability: 100 μM
Method: as §4

[8] = test system: AGS cells; assay: Annexin V/propidium iodide apoptosis assay, AGS; format: cell-based, human; settings: 48 h
Method: as §1, §2

[9] = test system: HepG2 cells; assay: Colony formation assay, HepG2; format: cell-based, human; settings: 48 h treatment then 7 days culture
Method: (§14) 2.5. Colony formation assay
(§15) In total, 250 cells were plated in each well of 12-well plates and allowed to adhere for 24 h.
(§16) Cells were treated with various concentrations of flavonoids (3.125, 6.25, 12.5, 25, 50 and 100 μM) for 48 h. Medium was discarded and fresh medium was added. After seven days, culture medium was removed and cells were washed once with PBS. Then, cells were fixed with 4% formaldehyde and stained with 0.1% crystal violet. […]

[10] = test system: DLD‐1 cells; assay: Colony formation assay, DLD-1; format: cell-based, human; settings: 48 h treatment then 7 days culture
Method: as §14, §15, §16

[11] = test system: p53 in AGS cells; assay: p53 expression by Western blot and fluorescence microscopy, AGS; format: cell-based, human; settings: 48 h treatment
Method: as §5, §6, §7, §8, §9, §10, §11, §12, §13

[12] = test system: hepatocellular carcinoma HepG2 cells; assay: MTT cell viability assay, HepG2 cells; format: cell-based, human; settings: for IC50: Homo sapiens, MTT; for reduction in viability: HepG2, 100 μM
Method: as §4

[13] = test system: AGS cells; assay: Colony formation assay, AGS; format: cell-based, human; settings: 48 h treatment then 7 days culture; for decrease in number of colonies: 12.5 μM
Method: as §14, §15, §16

[14] = test system: DLD‐1 cells; assay: [3H]-thymidine incorporation (DNA biosynthesis), DLD-1; format: cell-based, human; settings: DLD-1, 50 μM, 48 h
Method: as §3

[15] = test system: p53 in HepG2 cells; assay: p53 expression by Western blot and fluorescence microscopy, HepG2; format: cell-based, human; settings: HepG2, 48 h treatment
Method: as §5, §6, §7, §8, §9, §10, §11, §12, §13

[16] = test system: AGS cells; assay: [3H]-thymidine incorporation (DNA biosynthesis), AGS; format: cell-based, human; settings: 50 μM, 48 h
Method: as §3

Row | SMILES | IC50 ([5]; DLD-1, 48 h) | IC50 ([7]; 48 h) | IC50 ([7]; 72 h) | reduction of [3H]-thymidine incorporation [2] | IC50 ([3]; 24 h) | IC50 ([3]; 48 h) | IC50 ([3]; 72 h) | p53 level [6] | p53 level [11] | reduction of [3H]-thymidine incorporation [14] | p53 level [15] | reduction of [3H]-thymidine incorporation [16] | also measured
1 | COc1ccc(-c2cc(=O)c3c(O)cc(OC)cc3o2)cc1 [apigenin−7,4'‐O‐dimethyl ether, apigenin 7,4'‐O‐dimethyl ether] |  |  |  |  | 23.6 ± 2.2 µM | 12.9 ± 0.5 µM | 19.7 ± 1.3 µM |  |  |  |  |  | 
2 | COc1cc(O)c2c(=O)c(OC)c(-c3ccc(O)cc3)oc2c1 [kumatakenin] |  |  |  |  |  |  | 41.6 ± 3.5 µM |  |  |  |  |  | 
3 | COc1ccc(-c2oc3cc(O)c(OC)c(O)c3c(=O)c2OC)cc1 [santin] | 28 ± 1.3 µM | 17.1 ± 0.8 µM | 13.9 ± 1.2 µM | 74.9% | > 50 µM | > 50 µM | > 50 µM | decreased | increased significantly | 35.0% | increased significantly | 48.0% | percentage of cells in the early stage of apoptosis ([1]; HepG2, 12.5 μM): 36.6%; percentage of cells in the late stage of apoptosis ([1]; HepG2, 12.5 μM): 16.1%; percentage of cells in the early stage of apoptosis ([4]; DLD-1, 12.5 μM): 54.8%; percentage of cells in the late stage of apoptosis ([4]; DLD-1, 12.5 μM): 6.7%; IC50 ([5]; DLD-1, 24 h): > 50 µM; IC50 ([5]; DLD-1, 72 h): 36.5 ± 2.5 µM; IC50 ([7]; 24 h): > 50 µM; percentage of cells in the early stage of apoptosis ([8]; 12.5 μM): 65.8%; percentage of cells in the late stage of apoptosis ([8]; 12.5 μM): 7.6%; decrease in colony numbers ([9]; HepG2, 3.125 μM): 65.8%; decrease in number of colonies ([10]; DLD-1, 6.25 μM): 60%; IC50 ([12]; HepG2, 24 h): > 50 µM; IC50 ([12]; HepG2, 48 h): 19.8 ± 0.9 µM; IC50 ([12]; HepG2, 72 h): 22.7 ± 1.6 µM; decrease in colony numbers ([13]; 3.125 μM): 77.4%

The remaining compounds from weak to strong by IC50 ([7]; 72 h), led by results:

Row | IC50 ([5]; DLD-1, 48 h) | IC50 ([7]; 48 h) | IC50 ([7]; 72 h) | SMILES | reduction of [3H]-thymidine incorporation [2] | IC50 ([3]; 24 h) | IC50 ([3]; 48 h) | IC50 ([3]; 72 h) | p53 level [6] | p53 level [11] | reduction of [3H]-thymidine incorporation [14] | p53 level [15] | reduction of [3H]-thymidine incorporation [16] | also measured
4 | 49.3 ± 2.5 µM | 49.3 ± 3.3 µM | 44.5 ± 3.1 µM | COc1ccc(-c2oc3cc(O)cc(O)c3c(=O)c2OC)cc1 [ermanin] | 85.2% |  |  |  |  |  | 29.1% |  | 28.2% | reduction in viability ([5]; 48 h): over 80%; reduction in viability ([5]; 72 h): over 80%; reduction in viability ([7]; 48 h): over 80%; reduction in viability ([7]; 72 h): over 80%; reduction in viability ([12]; 48 h): over 80%; reduction in viability ([12]; 72 h): over 80%
5 |  |  | 28.4 ± 2.5 µM | O=c1c(O)c(-c2ccc(O)c(O)c2)oc2cc(O)cc(O)c12 [quercetin] |  |  |  |  |  |  |  |  |  | 
6 | 43.6 ± 2 µM | 18.2 ± 1.3 µM | 23.4 ± 1.4 µM | O=c1cc(-c2ccc(O)cc2)oc2cc(O)cc(O)c12 [apigenin, reference compound] | 85.4% | > 50 µM | > 50 µM | > 50 µM | up‐regulated | up‐regulated | 17.7% | up‐regulated | 56.2% | percentage of cells in the early stage of apoptosis ([1]; HepG2, 50 μM): 20.5%; percentage of cells in the late stage of apoptosis ([1]; HepG2, 50 μM): 12.3%; percentage of cells in the early stage of apoptosis ([4]; DLD-1, 50 μM): 29.7%; percentage of cells in the late stage of apoptosis ([4]; DLD-1, 50 μM): 9.4%; IC50 ([5]; DLD-1, 24 h): > 50 µM; IC50 ([5]; DLD-1, 72 h): > 50 µM; IC50 ([7]; 24 h): > 50 µM; percentage of cells in the early stage of apoptosis ([8]; 50 μM): 71.2%; percentage of cells in the late stage of apoptosis ([8]; 50 μM): 9.6%; decrease in number of colonies ([9]; HepG2, 12.5 μM): 61.8%; decrease in number of colonies ([10]; DLD-1, 12.5 μM): 23.5%; IC50 ([12]; HepG2, 24 h): > 50 µM; IC50 ([12]; HepG2, 48 h): > 50 µM; IC50 ([12]; HepG2, 72 h): 37.9 ± 2.9 µM; decrease in number of colonies [13]: 13.2%
7 |  | 31.7 ± 2.4 µM | 17.1 ± 1.4 µM | COc1cc2oc(-c3ccc(O)cc3)cc(=O)c2c(O)c1OC [cirsimaritin] | 53.6% | > 50 µM | > 50 µM | > 50 µM | decreased | increased significantly | 10.0% | increased significantly | 24.5% | percentage of cells in the early stage of apoptosis ([1]; HepG2, 50 μM): 51.2%; percentage of cells in the late stage of apoptosis ([1]; HepG2, 50 μM): 5.4%; percentage of cells in the early stage of apoptosis ([4]; DLD-1, 50 μM): 51.5%; percentage of cells in the late stage of apoptosis ([4]; DLD-1, 50 μM): 15.5%; percentage of cells in the early stage of apoptosis ([8]; 50 μM): 37.0%; percentage of cells in the late stage of apoptosis ([8]; 50 μM): 7.4%; decrease in number of colonies [13]: 75.7%
